# Source: patent publication US20130323217A1, “COMPOSITIONS AND METHODS FOR THE CONTROLLED REPOPULATION OF GRAM-NEGATIVE BACTERIA IN THE COLON” (Da Volterra, priority 2010, published 2013)
# Tests used:
# Assay type in all cases: in vivo, piglets
# [1] = Microbiological assay of faecal concentrations of colistin; details: 15 mg/kg/d colistin sulfate
# Procedure: Fecal concentrations of colistin were measured by a microbiological assay using agar medium 10 (Difco, Becton-Dickinson, Le Pont-de-Claix) and Bordetella bronchiseptica ATCC4617 as indicator strain. The limit of detection was 1.5 μg of colistin base per g of feces.
# (§1) Fresh faecal samples were collected from each piglet, diluted ten-fold (w/v) in peptone broth containing 30% glycerol, and faecal suspension aliquots were stored at −80° C. until microbiological analysis.
# [2] = test system: ESBL-producing Enterobacteriaceae; experiment: Piglet model: faecal counts of cefotaxime-resistant (ESBL-producing) Enterobacteriaceae after colistin decontamination and E. coli Nissle 1917 repopulation
# Procedure: (§2) The model was used according to the synopsis depicted in FIG. 1.
# In summary, piglets were treated sequentially with: • cefdinir (4 mg/kg/d) during 2 days, in order to enhance the carriage of ESBL-producing bacteria, • colistin sulfate (destroy phase):
# (§3) Colistin sulfate (Colivet), a non absorbable antibiotic, used in human decontamination, was given once per day orally in this experiment. Two regimens were tested: 7.5 mg/kg/d and 15 mg/kg/d, equivalent to human doses 500 mg/d and 1000 mg/d, respectively. The duration of the treatment was 3 days. The objective of such very high doses, given over a short period of time, was to obtain a rapid eradication of ESBL-producing Enterobacteriaceae without the emergence of strains resistant to colistin. • E. coli Nissle strain 1917 (EcN1917, Mutaflor). The dose was calculated to administrate the highest dose recommended in humans: 2 enteric-coated capsules of 2.5-25×10^9 viable bacteria, given orally, once daily during 6 days.
# as §1
# (§4) Before analysis, frozen aliquots were thawed by standing approximately 1 hr at room temperature and faecal suspensions were serially diluted in saline before plating on appropriate agar plates.
# Total Enterobacteriaceae were counted using Drigalski agar (BioRad Laboratories, Marnes-La-Coquette, France) plates.
# Cefotaxime- and colistin-resistant Enterobacteriaceae were counted using Drigalski agar supplemented with 1.5 mg/L cefotaxime and 10 mg/L colistin base respectively.
# Bacterial counts which were below the detection threshold (2 log CFU/g of faeces) were considered to be equal to the 2 log CFU/g for statistical analysis.
# [3] = test system: colistin-resistant Enterobacteriaceae; experiment: Piglet model: faecal counts of colistin-resistant Enterobacteriaceae; details: during follow-up (14 days)
# Procedure: as §2, §3, §1, §4
# Cefotaxime- and colistin-resistant Enterobacteriaceae were counted using Drigalski agar supplemented with 1.5 mg/L cefotaxime and 10 mg/L colistin base respectively. […]
substance,measurement,setting,value
colistin sulfate,faecal concentrations relative to the MIC,[1],at least 10 fold
same,efficacy to eradicate ESBL-producing enterobacteria (destroy phase),"[2]; 15 mg/kg/d compared with 7.5 mg/kg/d, orally once per day, 3 days",best efficacy
same,decolonization of ESBL-producing enterobacteria,[2]; colistin for three days followed by six days of E. coli strain Nissle 1917,rapid and efficacious decolonization
same,efficacy in the restore phase,[2]; group which had received the high dose of colistin,best efficacy
same,selection of strains resistant to colistin,[3],no selection of strains resistant to colistin was observed
